Reference: patent US20220281848A1, “PYRAZOLE-SUBSTITUTED PYRROLIDINONES AS HERBICIDES” (FMC Corporation, priority 2019, published 2022)

Tested on: plants
Assay: Test D pre-emergence, other plants of Tables D1 and D3
Assay type: in vivo
Conditions: for ALOMY damage rating / AVEFA damage rating / BEAVA damage rating / BROTE damage rating / BRSNN damage rating / CHEAL damage rating / GALAP damage rating / HORVW damage rating / KCHSC damage rating / LOLPE damage rating / POAAN damage rating / SINAR damage rating / STEME damage rating / VERPE damage rating / damage to plant, ALOMY / damage to plant, AVEFA / damage to plant, BEAVA / damage to plant, BROTE / damage to plant, BRSNN / damage to plant, HORVW / damage to plant, SINAR: pre-emergence, 100=total damage, 0=no damage; for ALOMY damage rating / AVEFA damage rating / BEAVA damage rating / BROTE damage rating / BRSNN damage rating / CHEAL damage rating / GALAP damage rating / HORVW damage rating / KCHSC damage rating / LOLPE damage rating / POAAN damage rating / SINAR damage rating / STEME damage rating / VERPE damage rating: 20 DAA; for ABUTH damage to plant (100=total damage; 0=no damage) / AMARE damage to plant (100=total damage; 0=no damage) / BIDPI damage to plant (100=total damage; 0=no damage) / BRAPL damage to plant (100=total damage; 0=no damage) / CYPES damage to plant (100=total damage; 0=no damage) / DIGSA damage to plant (100=total damage; 0=no damage) / ECHCG damage to plant (100=total damage; 0=no damage) / EPHHL damage to plant (100=total damage; 0=no damage) / GLXMA damage to plant (100=total damage; 0=no damage) / IPOHE damage to plant (100=total damage; 0=no damage) / ORYSA damage to plant (100=total damage; 0=no damage) / PANMI damage to plant (100=total damage; 0=no damage) / SETFA damage to plant (100=total damage; 0=no damage) / SORVU damage to plant (100=total damage; 0=no damage): preemergent
Method in brief: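 Damage was rated visually from 0 (none) to 100 (total), at 20 DAA for pre-emergence and 15 d for post-emergence. Plants grew from safener-treated seed in a glasshouse at 24/18° C. or 20/16° C. day/night, 65% humidity, watered twice daily.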

CN1CC(c2cc(Cl)n(C)n2)C(C(=O)Nc2ccc(F)c(F)c2F)C1=O (racemic) [Compound 31]
30: VERPE damage rating (Rates 250) | ECHCG damage to plant (100=total damage; 0=no damage) (Rates 60, 20 DAA) | ECHCG damage to plant (100=total damage; 0=no damage) (Rates 130, 20 DAA) | SETFA damage to plant (100=total damage; 0=no damage) (Rates 130, 20 DAA)
50: VERPE damage rating (Rates 500) | DIGSA damage to plant (100=total damage; 0=no damage) (Rates 60, 20 DAA)
80: BRAPL damage to plant (100=total damage; 0=no damage) (Rates 130, 20 DAA) | BRAPL damage to plant (100=total damage; 0=no damage) (Rates 250, 20 DAA) | ECHCG damage to plant (100=total damage; 0=no damage) (Rates 250, 20 DAA)
90: DIGSA damage to plant (100=total damage; 0=no damage) (Rates 130, 20 DAA) | DIGSA damage to plant (100=total damage; 0=no damage) (Rates 250, 20 DAA) | BRAPL damage to plant (100=total damage; 0=no damage) (Rates 500, 20 DAA) | DIGSA damage to plant (100=total damage; 0=no damage) (Rates 500, 20 DAA) | ECHCG damage to plant (100=total damage; 0=no damage) (Rates 500, 20 DAA) | SETFA damage to plant (100=total damage; 0=no damage) (Rates 500, 20 DAA)
10: POAAN damage rating (Rates 500) | STEME damage rating (Rates 500) | damage to plant, AVEFA (rate 500, 20 DAA) | damage to plant, BROTE (rate 500, 20 DAA) | BRAPL damage to plant (100=total damage; 0=no damage) (Rates 30, 20 DAA) | DIGSA damage to plant (100=total damage; 0=no damage) (Rates 30, 20 DAA) | SETFA damage to plant (100=total damage; 0=no damage) (Rates 60, 20 DAA)
0: ALOMY damage rating (Rates 15) | ALOMY damage rating (Rates 30) | AVEFA damage rating (Rates 15) | AVEFA damage rating (Rates 30) | BEAVA damage rating (Rates 15) | BEAVA damage rating (Rates 30) | BROTE damage rating (Rates 15) | BROTE damage rating (Rates 30) | BRSNN damage rating (Rates 15) | BRSNN damage rating (Rates 30) | CHEAL damage rating (Rates 15) | CHEAL damage rating (Rates 30) | CHEAL damage rating (Rates 60) | CHEAL damage rating (Rates 130) | CHEAL damage rating (Rates 250) | GALAP damage rating (Rates 15) | GALAP damage rating (Rates 30) | GALAP damage rating (Rates 60) | GALAP damage rating (Rates 130) | GALAP damage rating (Rates 250) | GALAP damage rating (Rates 500) | HORVW damage rating (Rates 15) | HORVW damage rating (Rates 30) | KCHSC damage rating (Rates 15) | KCHSC damage rating (Rates 30) | KCHSC damage rating (Rates 60) | KCHSC damage rating (Rates 130) | KCHSC damage rating (Rates 250) | KCHSC damage rating (Rates 500) | LOLPE damage rating (Rates 15) | LOLPE damage rating (Rates 30) | LOLPE damage rating (Rates 60) | LOLPE damage rating (Rates 130) | LOLPE damage rating (Rates 250) | LOLPE damage rating (Rates 500) | POAAN damage rating (Rates 15) | POAAN damage rating (Rates 30) | POAAN damage rating (Rates 60) | POAAN damage rating (Rates 130) | POAAN damage rating (Rates 250) | SINAR damage rating (Rates 15) | SINAR damage rating (Rates 30) | STEME damage rating (Rates 15) | STEME damage rating (Rates 30) | STEME damage rating (Rates 60) | STEME damage rating (Rates 130) | STEME damage rating (Rates 250) | VERPE damage rating (Rates 15) | VERPE damage rating (Rates 30) | VERPE damage rating (Rates 60) | VERPE damage rating (Rates 130) | damage to plant, ALOMY (rate 60, 20 DAA) | damage to plant, AVEFA (rate 60, 20 DAA) | damage to plant, BEAVA (rate 60, 20 DAA) | damage to plant, BROTE (rate 60, 20 DAA) | damage to plant, BRSNN (rate 60, 20 DAA) | damage to plant, HORVW (rate 60, 20 DAA) | damage to plant, SINAR (rate 60, 20 DAA) | damage to plant, ALOMY (rate 130, 20 DAA) | damage to plant, AVEFA (rate 130, 20 DAA) | damage to plant, BEAVA (rate 130, 20 DAA) | damage to plant, BROTE (rate 130, 20 DAA) | damage to plant, BRSNN (rate 130, 20 DAA) | damage to plant, HORVW (rate 130, 20 DAA) | damage to plant, SINAR (rate 130, 20 DAA) | damage to plant, ALOMY (rate 250, 20 DAA) | damage to plant, AVEFA (rate 250, 20 DAA) | damage to plant, BEAVA (rate 250, 20 DAA) | damage to plant, BROTE (rate 250, 20 DAA) | damage to plant, BRSNN (rate 250, 20 DAA) | damage to plant, HORVW (rate 250, 20 DAA) | damage to plant, SINAR (rate 250, 20 DAA) | damage to plant, ALOMY (rate 500, 20 DAA) | damage to plant, BEAVA (rate 500, 20 DAA) | damage to plant, BRSNN (rate 500, 20 DAA) | ABUTH damage to plant (100=total damage; 0=no damage) (Rates 15, 20 DAA) | AMARE damage to plant (100=total damage; 0=no damage) (Rates 15, 20 DAA) | BIDPI damage to plant (100=total damage; 0=no damage) (Rates 15, 20 DAA) | BRAPL damage to plant (100=total damage; 0=no damage) (Rates 15, 20 DAA) | CYPES damage to plant (100=total damage; 0=no damage) (Rates 15, 20 DAA) | DIGSA damage to plant (100=total damage; 0=no damage) (Rates 15, 20 DAA) | ECHCG damage to plant (100=total damage; 0=no damage) (Rates 15, 20 DAA) | EPHHL damage to plant (100=total damage; 0=no damage) (Rates 15, 20 DAA) | GLXMA damage to plant (100=total damage; 0=no damage) (Rates 15, 20 DAA) | IPOHE damage to plant (100=total damage; 0=no damage) (Rates 15, 20 DAA) | ORYSA damage to plant (100=total damage; 0=no damage) (Rates 15, 20 DAA) | PANMI damage to plant (100=total damage; 0=no damage) (Rates 15, 20 DAA) | SETFA damage to plant (100=total damage; 0=no damage) (Rates 15, 20 DAA) | SORVU damage to plant (100=total damage; 0=no damage) (Rates 15, 20 DAA) | ABUTH damage to plant (100=total damage; 0=no damage) (Rates 30, 20 DAA) | AMARE damage to plant (100=total damage; 0=no damage) (Rates 30, 20 DAA) | BIDPI damage to plant (100=total damage; 0=no damage) (Rates 30, 20 DAA) | CYPES damage to plant (100=total damage; 0=no damage) (Rates 30, 20 DAA) | ECHCG damage to plant (100=total damage; 0=no damage) (Rates 30, 20 DAA) | EPHHL damage to plant (100=total damage; 0=no damage) (Rates 30, 20 DAA) | GLXMA damage to plant (100=total damage; 0=no damage) (Rates 30, 20 DAA) | IPOHE damage to plant (100=total damage; 0=no damage) (Rates 30, 20 DAA) | ORYSA damage to plant (100=total damage; 0=no damage) (Rates 30, 20 DAA) | PANMI damage to plant (100=total damage; 0=no damage) (Rates 30, 20 DAA) | SETFA damage to plant (100=total damage; 0=no damage) (Rates 30, 20 DAA) | SORVU damage to plant (100=total damage; 0=no damage) (Rates 30, 20 DAA) | ABUTH damage to plant (100=total damage; 0=no damage) (Rates 60, 20 DAA) | AMARE damage to plant (100=total damage; 0=no damage) (Rates 60, 20 DAA) | BIDPI damage to plant (100=total damage; 0=no damage) (Rates 60, 20 DAA) | CYPES damage to plant (100=total damage; 0=no damage) (Rates 60, 20 DAA) | EPHHL damage to plant (100=total damage; 0=no damage) (Rates 60, 20 DAA) | GLXMA damage to plant (100=total damage; 0=no damage) (Rates 60, 20 DAA) | IPOHE damage to plant (100=total damage; 0=no damage) (Rates 60, 20 DAA) | ORYSA damage to plant (100=total damage; 0=no damage) (Rates 60, 20 DAA) | PANMI damage to plant (100=total damage; 0=no damage) (Rates 60, 20 DAA) | SORVU damage to plant (100=total damage; 0=no damage) (Rates 60, 20 DAA) | ABUTH damage to plant (100=total damage; 0=no damage) (Rates 130, 20 DAA) | AMARE damage to plant (100=total damage; 0=no damage) (Rates 130, 20 DAA) | BIDPI damage to plant (100=total damage; 0=no damage) (Rates 130, 20 DAA) | CYPES damage to plant (100=total damage; 0=no damage) (Rates 130, 20 DAA) | EPHHL damage to plant (100=total damage; 0=no damage) (Rates 130, 20 DAA) | GLXMA damage to plant (100=total damage; 0=no damage) (Rates 130, 20 DAA) | IPOHE damage to plant (100=total damage; 0=no damage) (Rates 130, 20 DAA) | ORYSA damage to plant (100=total damage; 0=no damage) (Rates 130, 20 DAA) | PANMI damage to plant (100=total damage; 0=no damage) (Rates 130, 20 DAA) | SORVU damage to plant (100=total damage; 0=no damage) (Rates 130, 20 DAA) | ABUTH damage to plant (100=total damage; 0=no damage) (Rates 250, 20 DAA) | AMARE damage to plant (100=total damage; 0=no damage) (Rates 250, 20 DAA) | BIDPI damage to plant (100=total damage; 0=no damage) (Rates 250, 20 DAA) | CYPES damage to plant (100=total damage; 0=no damage) (Rates 250, 20 DAA) | EPHHL damage to plant (100=total damage; 0=no damage) (Rates 250, 20 DAA) | GLXMA damage to plant (100=total damage; 0=no damage) (Rates 250, 20 DAA) | IPOHE damage to plant (100=total damage; 0=no damage) (Rates 250, 20 DAA) | ORYSA damage to plant (100=total damage; 0=no damage) (Rates 250, 20 DAA) | PANMI damage to plant (100=total damage; 0=no damage) (Rates 250, 20 DAA) | SORVU damage to plant (100=total damage; 0=no damage) (Rates 250, 20 DAA) | ABUTH damage to plant (100=total damage; 0=no damage) (Rates 500, 20 DAA) | AMARE damage to plant (100=total damage; 0=no damage) (Rates 500, 20 DAA) | BIDPI damage to plant (100=total damage; 0=no damage) (Rates 500, 20 DAA) | CYPES damage to plant (100=total damage; 0=no damage) (Rates 500, 20 DAA) | EPHHL damage to plant (100=total damage; 0=no damage) (Rates 500, 20 DAA) | GLXMA damage to plant (100=total damage; 0=no damage) (Rates 500, 20 DAA) | IPOHE damage to plant (100=total damage; 0=no damage) (Rates 500, 20 DAA) | ORYSA damage to plant (100=total damage; 0=no damage) (Rates 500, 20 DAA) | PANMI damage to plant (100=total damage; 0=no damage) (Rates 500, 20 DAA) | SORVU damage to plant (100=total damage; 0=no damage) (Rates 500, 20 DAA)
60: BRAPL damage to plant (100=total damage; 0=no damage) (Rates 60, 20 DAA)
20: CHEAL damage rating (Rates 500) | damage to plant, HORVW (rate 500, 20 DAA) | damage to plant, SINAR (rate 500, 20 DAA) | SETFA damage to plant (100=total damage; 0=no damage) (Rates 250, 20 DAA)
